According to the kinase profiling compilation of Christmann-Franck et al. (2016):
Values joined by “and” are separate entries in the source; they are usually repeats but may differ in a detail not shown here. Equal entries are not always repeated.

Key:
Experiment in all cases: Caliper, Mobility shift assay off-chip
[1] = target: CDC42BPB (human) (UniProt Q9Y5S2)
[2] = target: PRKACG (human) (UniProt P22612)
[3] = target: TAB1 (human) (UniProt Q15750)
[4] = target: AURKC (human) (UniProt Q9UQB9)
[5] = target: EPHA1 (human) (UniProt P21709)
[6] = target: NTRK2 (human) (UniProt Q16620)
[7] = target: HCK (human) (UniProt P08631)
[8] = target: EPHA8 (human) (UniProt P29322)
[9] = target: CAMK2A (human) (UniProt Q9UQM7)
[10] = target: SIK1 (human) (UniProt P57059)
[11] = target: CLK2 (human) (UniProt P49760)
[12] = target: PRKCE (human) (UniProt Q02156)
[13] = target: FGFR2 (human) (UniProt P21802)
[14] = target: MUSK (human) (UniProt O15146)
[15] = target: MAPK1 (human) (UniProt P28482)
[16] = target: PRKCZ (human) (UniProt Q05513)
[17] = target: PRKAA2 (human) (UniProt P54646)
[18] = target: MARK4 (human) (UniProt Q96L34)
[19] = target: MYLK2 (human) (UniProt Q9H1R3)
[20] = target: DYRK3 (human) (UniProt O43781)
[21] = target: DDR1 (human) (UniProt Q08345)
[22] = target: SPHK2 (human) (UniProt Q9NRA0)
[23] = target: MINK1 (human) (UniProt Q8N4C8)
[24] = target: PRKCI (human) (UniProt P41743)
[25] = target: MAPKAPK3 (human) (UniProt Q16644)
[26] = target: CHEK2 (human) (UniProt O96017)
[27] = target: CSNK1D (human) (UniProt P48730)
[28] = target: STK24 (human) (UniProt Q9Y6E0)
[29] = target: CLK3 (human) (UniProt P49761)
[30] = target: CSNK2A2 (human) (UniProt P19784)
[31] = target: PDGFRB (human) (UniProt P09619)
[32] = target: MST4 (human) (UniProt Q9P289)
[33] = target: BLK (human) (UniProt P51451)
[34] = target: NUAK1 (human) (UniProt O60285)

Sequence of CLK2 (human) (P49760 whole entry, looked up): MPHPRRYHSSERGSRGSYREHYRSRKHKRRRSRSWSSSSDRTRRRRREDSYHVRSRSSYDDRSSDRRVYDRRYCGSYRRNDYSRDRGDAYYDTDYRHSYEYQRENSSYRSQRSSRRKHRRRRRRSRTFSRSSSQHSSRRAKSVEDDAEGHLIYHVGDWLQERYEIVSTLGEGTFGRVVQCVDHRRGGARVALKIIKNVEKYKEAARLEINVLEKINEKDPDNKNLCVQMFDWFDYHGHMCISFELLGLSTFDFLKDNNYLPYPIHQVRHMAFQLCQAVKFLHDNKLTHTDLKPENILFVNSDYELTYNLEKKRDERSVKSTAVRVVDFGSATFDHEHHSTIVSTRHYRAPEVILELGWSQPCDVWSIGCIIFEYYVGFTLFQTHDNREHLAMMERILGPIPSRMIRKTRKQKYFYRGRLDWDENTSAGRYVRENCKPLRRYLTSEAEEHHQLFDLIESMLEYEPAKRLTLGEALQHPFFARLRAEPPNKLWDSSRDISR
Sequence of FGFR2 (human) (P21802 whole entry, looked up): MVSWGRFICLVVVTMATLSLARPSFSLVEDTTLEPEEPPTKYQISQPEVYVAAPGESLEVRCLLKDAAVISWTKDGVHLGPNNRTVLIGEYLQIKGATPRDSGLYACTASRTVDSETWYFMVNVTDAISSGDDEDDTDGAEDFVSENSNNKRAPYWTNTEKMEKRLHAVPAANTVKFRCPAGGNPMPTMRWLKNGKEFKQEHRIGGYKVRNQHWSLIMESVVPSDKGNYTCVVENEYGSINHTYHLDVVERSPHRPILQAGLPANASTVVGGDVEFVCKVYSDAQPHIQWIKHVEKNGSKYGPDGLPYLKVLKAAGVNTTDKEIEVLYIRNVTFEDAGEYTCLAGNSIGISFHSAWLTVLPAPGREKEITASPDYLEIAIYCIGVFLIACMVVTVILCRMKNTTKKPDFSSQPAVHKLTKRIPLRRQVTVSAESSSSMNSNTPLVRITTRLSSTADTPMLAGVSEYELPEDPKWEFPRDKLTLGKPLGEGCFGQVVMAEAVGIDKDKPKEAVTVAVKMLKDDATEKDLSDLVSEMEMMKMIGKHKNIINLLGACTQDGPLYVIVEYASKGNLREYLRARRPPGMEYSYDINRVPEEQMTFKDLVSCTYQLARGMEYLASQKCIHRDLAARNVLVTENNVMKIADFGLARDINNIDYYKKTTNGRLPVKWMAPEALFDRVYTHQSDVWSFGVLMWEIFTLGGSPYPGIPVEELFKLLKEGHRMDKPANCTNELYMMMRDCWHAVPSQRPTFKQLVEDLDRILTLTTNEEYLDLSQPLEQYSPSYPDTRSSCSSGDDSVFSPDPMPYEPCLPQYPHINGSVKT
Sequence of PRKCI (human) (P41743 whole entry, looked up): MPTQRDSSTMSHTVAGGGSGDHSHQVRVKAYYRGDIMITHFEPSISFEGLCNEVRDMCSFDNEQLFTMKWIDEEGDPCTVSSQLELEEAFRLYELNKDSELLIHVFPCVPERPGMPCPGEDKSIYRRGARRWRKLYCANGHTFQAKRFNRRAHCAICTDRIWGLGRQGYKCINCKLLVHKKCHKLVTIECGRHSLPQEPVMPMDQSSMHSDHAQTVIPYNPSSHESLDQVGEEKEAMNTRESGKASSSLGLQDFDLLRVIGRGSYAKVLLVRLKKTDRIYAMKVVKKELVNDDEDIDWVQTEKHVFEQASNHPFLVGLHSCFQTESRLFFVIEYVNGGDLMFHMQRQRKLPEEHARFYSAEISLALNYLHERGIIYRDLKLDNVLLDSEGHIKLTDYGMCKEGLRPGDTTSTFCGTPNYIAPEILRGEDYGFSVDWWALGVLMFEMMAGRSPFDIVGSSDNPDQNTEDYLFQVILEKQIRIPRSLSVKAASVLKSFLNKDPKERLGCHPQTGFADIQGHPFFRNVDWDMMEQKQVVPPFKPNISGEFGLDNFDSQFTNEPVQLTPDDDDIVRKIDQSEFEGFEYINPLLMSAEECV
Sequence of MST4 (human) (Q9P289 whole entry, looked up): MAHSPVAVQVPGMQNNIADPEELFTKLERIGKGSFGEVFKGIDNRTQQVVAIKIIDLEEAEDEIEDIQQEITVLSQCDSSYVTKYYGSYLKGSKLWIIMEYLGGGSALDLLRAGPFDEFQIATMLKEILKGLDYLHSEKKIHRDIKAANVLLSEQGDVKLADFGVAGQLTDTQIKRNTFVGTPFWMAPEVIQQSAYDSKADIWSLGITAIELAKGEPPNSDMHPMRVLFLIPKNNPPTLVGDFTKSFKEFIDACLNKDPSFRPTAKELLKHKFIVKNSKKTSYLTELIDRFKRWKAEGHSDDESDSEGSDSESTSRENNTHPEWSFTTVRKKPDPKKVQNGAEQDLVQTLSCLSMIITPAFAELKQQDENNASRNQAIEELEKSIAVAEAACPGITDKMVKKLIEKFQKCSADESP
Sequence of HCK (human) (P08631 whole entry, looked up): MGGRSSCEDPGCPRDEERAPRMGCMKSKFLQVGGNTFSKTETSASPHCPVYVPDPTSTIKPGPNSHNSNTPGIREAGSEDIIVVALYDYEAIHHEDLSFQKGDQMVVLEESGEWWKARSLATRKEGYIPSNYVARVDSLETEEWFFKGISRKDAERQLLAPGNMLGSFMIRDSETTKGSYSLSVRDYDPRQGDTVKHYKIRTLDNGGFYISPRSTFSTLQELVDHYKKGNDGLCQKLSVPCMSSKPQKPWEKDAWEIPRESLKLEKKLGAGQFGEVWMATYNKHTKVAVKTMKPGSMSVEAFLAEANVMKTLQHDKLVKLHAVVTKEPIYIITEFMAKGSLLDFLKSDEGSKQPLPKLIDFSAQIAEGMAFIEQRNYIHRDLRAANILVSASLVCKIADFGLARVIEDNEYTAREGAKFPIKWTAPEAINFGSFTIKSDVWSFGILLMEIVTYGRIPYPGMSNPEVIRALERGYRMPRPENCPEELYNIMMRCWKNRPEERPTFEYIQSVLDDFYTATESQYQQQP
Sequence of NTRK2 (human) (Q16620 whole entry, looked up): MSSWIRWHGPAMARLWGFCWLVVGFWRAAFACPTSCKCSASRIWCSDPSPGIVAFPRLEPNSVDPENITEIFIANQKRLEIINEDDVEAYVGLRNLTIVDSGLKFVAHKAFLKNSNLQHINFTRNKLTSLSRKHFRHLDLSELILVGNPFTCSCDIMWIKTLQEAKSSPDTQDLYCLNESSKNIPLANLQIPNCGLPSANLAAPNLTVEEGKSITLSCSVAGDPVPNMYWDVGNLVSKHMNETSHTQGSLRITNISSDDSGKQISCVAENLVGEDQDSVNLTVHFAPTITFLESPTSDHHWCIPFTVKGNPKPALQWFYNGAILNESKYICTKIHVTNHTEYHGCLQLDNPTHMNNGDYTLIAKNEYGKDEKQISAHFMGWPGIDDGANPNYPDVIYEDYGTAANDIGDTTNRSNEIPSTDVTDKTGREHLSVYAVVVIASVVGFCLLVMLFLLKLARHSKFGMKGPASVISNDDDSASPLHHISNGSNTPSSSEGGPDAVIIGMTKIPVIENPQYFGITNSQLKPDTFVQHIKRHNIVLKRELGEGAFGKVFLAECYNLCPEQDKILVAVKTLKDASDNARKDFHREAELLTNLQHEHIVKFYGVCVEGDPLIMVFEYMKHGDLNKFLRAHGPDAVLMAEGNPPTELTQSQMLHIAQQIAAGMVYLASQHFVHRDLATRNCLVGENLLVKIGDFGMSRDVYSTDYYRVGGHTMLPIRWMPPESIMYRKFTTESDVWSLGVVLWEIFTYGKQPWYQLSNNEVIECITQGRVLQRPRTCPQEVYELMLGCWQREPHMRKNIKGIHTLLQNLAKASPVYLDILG
Sequence of MARK4 (human) (Q96L34 whole entry, looked up): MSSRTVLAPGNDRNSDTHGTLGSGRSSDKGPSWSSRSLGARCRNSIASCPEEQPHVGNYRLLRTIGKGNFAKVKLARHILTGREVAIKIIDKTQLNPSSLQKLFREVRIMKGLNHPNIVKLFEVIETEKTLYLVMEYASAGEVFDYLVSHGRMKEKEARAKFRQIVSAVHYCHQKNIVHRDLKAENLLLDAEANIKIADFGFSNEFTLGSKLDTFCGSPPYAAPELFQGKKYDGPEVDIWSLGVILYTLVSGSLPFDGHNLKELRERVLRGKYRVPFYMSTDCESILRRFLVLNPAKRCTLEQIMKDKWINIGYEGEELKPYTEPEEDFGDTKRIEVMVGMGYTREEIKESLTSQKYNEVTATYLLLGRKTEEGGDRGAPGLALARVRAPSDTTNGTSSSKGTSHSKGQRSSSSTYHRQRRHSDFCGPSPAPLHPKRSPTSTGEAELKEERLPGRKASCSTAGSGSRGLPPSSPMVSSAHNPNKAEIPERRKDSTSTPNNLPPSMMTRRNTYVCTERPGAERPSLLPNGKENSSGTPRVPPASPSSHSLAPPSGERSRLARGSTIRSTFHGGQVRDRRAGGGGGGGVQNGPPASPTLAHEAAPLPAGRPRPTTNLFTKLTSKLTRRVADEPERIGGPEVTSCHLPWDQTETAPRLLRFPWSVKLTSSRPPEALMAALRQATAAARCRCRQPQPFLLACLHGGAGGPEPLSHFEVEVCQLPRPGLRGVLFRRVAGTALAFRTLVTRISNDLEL
Sequence of PRKCZ (human) (Q05513 whole entry, looked up): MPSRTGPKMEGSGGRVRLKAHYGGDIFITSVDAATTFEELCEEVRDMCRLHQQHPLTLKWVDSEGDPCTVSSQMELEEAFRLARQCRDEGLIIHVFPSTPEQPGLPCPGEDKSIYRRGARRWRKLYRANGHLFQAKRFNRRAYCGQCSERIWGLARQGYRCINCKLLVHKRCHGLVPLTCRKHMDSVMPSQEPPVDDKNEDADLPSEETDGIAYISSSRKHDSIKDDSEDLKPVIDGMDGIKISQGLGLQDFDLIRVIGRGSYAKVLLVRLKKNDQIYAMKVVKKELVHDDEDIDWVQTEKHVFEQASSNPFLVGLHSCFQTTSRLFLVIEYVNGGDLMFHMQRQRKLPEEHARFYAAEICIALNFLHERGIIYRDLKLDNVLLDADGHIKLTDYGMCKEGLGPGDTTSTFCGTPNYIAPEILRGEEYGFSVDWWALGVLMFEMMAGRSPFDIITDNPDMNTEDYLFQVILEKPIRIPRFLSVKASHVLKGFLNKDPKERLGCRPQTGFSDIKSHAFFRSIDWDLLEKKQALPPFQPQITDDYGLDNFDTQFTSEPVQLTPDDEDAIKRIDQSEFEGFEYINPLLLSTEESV

For COc1cc2c(Oc3ccc4[nH]c(C)cc4c3F)ncnc2cc1OCCCN1CCCC1, the inhibition ([1]; compound 0.02 µM) was -8.9%, the inhibition ([1]; compound 0.2 µM) was 4.2% and the inhibition ([2]; compound 0.02 µM) was -4.7%. It also gave an inhibition ([2]; compound 0.2 µM) of -1.4%, an inhibition ([3]; compound 0.02 µM) of 5.3% and an inhibition ([3]; compound 0.2 µM) of 8.9%. For the same compound, the inhibition ([4]; compound 0.02 µM) was -4.3%, the inhibition ([4]; compound 0.2 µM) was -4% and the inhibition ([5]; compound 0.02 µM) was -0.2%. It also gave an inhibition ([5]; compound 0.2 µM) of 6.5%, an inhibition ([6]; compound 0.02 µM) of 8.3% and an inhibition ([7]; compound 0.02 µM) of 0.4%. For the same compound, the inhibition ([7]; compound 0.2 µM) was 21.1%, the inhibition ([8]; compound 0.02 µM) was -3.2% and the inhibition ([8]; compound 0.2 µM) was 4.7%. It also gave an inhibition ([9]; compound 0.02 µM) of 3.5%, an inhibition ([9]; compound 0.2 µM) of 3.9% and an inhibition ([10]; compound 0.02 µM) of -3.3%. It also gave an inhibition ([10]; compound 0.2 µM) of -0.4%, an inhibition ([11]; compound 0.02 µM) of 0.3% and an inhibition ([11]; compound 0.2 µM) of 1.1%. For the same compound, the inhibition ([12]; compound 0.02 µM) was 7.2%, the inhibition ([12]; compound 0.2 µM) was -3% and the inhibition ([13]; compound 0.02 µM) was 71.8%. It also gave an inhibition ([13]; compound 0.2 µM) of 98.3%, an inhibition ([14]; compound 0.02 µM) of -4.8% and an inhibition ([14]; compound 0.2 µM) of -1.6%. The inhibition ([15]; compound 0.02 µM) was -6.5%, the inhibition ([15]; compound 0.2 µM) was -9% and the inhibition ([16]; compound 0.02 µM) was 10.1%. For the same compound, the inhibition ([16]; compound 0.2 µM) was 1.5%, the inhibition ([17]; compound 0.02 µM) was 5.1% and the inhibition ([17]; compound 0.2 µM) was 6%. The inhibition ([18]; compound 0.02 µM) was -7.1%, the inhibition ([18]; compound 0.2 µM) was -7.3% and the inhibition ([19]; compound 0.02 µM) was -2.3%. For the same compound, the inhibition ([19]; compound 0.2 µM) was -2.4%, the inhibition ([20]; compound 0.02 µM) was -7.2% and the inhibition ([20]; compound 0.2 µM) was -7.9%. For the same compound, the inhibition ([21]; compound 0.02 µM) was 25.7%, the inhibition ([21]; compound 0.2 µM) was 95.3% and the inhibition ([22]; compound 0.02 µM) was 6.4%. It also gave an inhibition ([22]; compound 0.2 µM) of 2.8%, an inhibition ([23]; compound 0.02 µM) of 3.5% and an inhibition ([23]; compound 0.2 µM) of 2.9%. The inhibition ([24]; compound 0.02 µM) was 4.3%, the inhibition ([24]; compound 0.2 µM) was 6% and the inhibition ([25]; compound 0.02 µM) was 1.1%. For the same compound, the inhibition ([25]; compound 0.2 µM) was -0.2%, the inhibition ([26]; compound 0.02 µM) was -1.2% and the inhibition ([26]; compound 0.2 µM) was 3.6%. The inhibition ([27]; compound 0.02 µM) was -3.7% and -4.3%, the inhibition ([27]; compound 0.2 µM) was -3.5% and -3.9% and the inhibition ([28]; compound 0.02 µM) was 2%. It also gave an inhibition ([28]; compound 0.2 µM) of 12.8%, an inhibition ([29]; compound 0.02 µM) of 11.9% and an inhibition ([29]; compound 0.2 µM) of -4.2%. It also gave an inhibition ([30]; compound 0.02 µM) of -0.7%, an inhibition ([30]; compound 0.2 µM) of -1.2% and an inhibition ([31]; compound 0.02 µM) of 17.9%. It also gave an inhibition ([31]; compound 0.2 µM) of 61.8%, an inhibition ([32]; compound 0.02 µM) of -7.3% and an inhibition ([32]; compound 0.2 µM) of -3%. The inhibition ([33]; compound 0.02 µM) was 13.8%, the inhibition ([33]; compound 0.2 µM) was 36.1% and the inhibition ([34]; compound 0.02 µM) was 8.9%. For the same compound, the inhibition ([34]; compound 0.2 µM) was -13.6%.
For CCN(CC)CCNC(=O)c1c(C)[nH]c(/C=C2\C(=O)Nc3ccc(F)cc32)c1C, the inhibition ([1]; compound 0.2 µM) was -0.5%, the inhibition ([1]; compound 4.0 µM) was 14.2% and the inhibition ([2]; compound 0.2 µM) was -4.4%. For the same compound, the inhibition ([2]; compound 4.0 µM) was 28.9%, the inhibition ([3]; compound 0.2 µM) was 83.7% and the inhibition ([3]; compound 4.0 µM) was 101%. The inhibition ([4]; compound 0.2 µM) was 23.2%, the inhibition ([4]; compound 4.0 µM) was 87.1% and the inhibition ([5]; compound 0.2 µM) was 8.2%. It also gave an inhibition ([5]; compound 4.0 µM) of 66.9%, an inhibition ([6]; compound 0.2 µM) of 85.7% and an inhibition ([6]; compound 4.0 µM) of 101%. The inhibition ([7]; compound 0.2 µM) was 38%, the inhibition ([7]; compound 4.0 µM) was 94.6% and the inhibition ([8]; compound 0.2 µM) was -0.2%. The inhibition ([8]; compound 4.0 µM) was 27.7%, the inhibition ([9]; compound 0.2 µM) was 24.5% and the inhibition ([9]; compound 4.0 µM) was 89%. The inhibition ([10]; compound 0.2 µM) was 15%, the inhibition ([10]; compound 4.0 µM) was 76.1% and the inhibition ([11]; compound 0.2 µM) was 78.3%. The inhibition ([11]; compound 4.0 µM) was 97.2%, the inhibition ([12]; compound 0.2 µM) was 4.4% and the inhibition ([12]; compound 4.0 µM) was 11%. For the same compound, the inhibition ([13]; compound 0.2 µM) was 71.3%, the inhibition ([13]; compound 4.0 µM) was 99.7% and the inhibition ([14]; compound 0.2 µM) was 94.8%. The inhibition ([14]; compound 4.0 µM) was 101%, the inhibition ([15]; compound 0.2 µM) was -7.5% and the inhibition ([15]; compound 4.0 µM) was -1.7%. For the same compound, the inhibition ([16]; compound 0.2 µM) was -1.5%, the inhibition ([16]; compound 4.0 µM) was 13.5% and the inhibition ([17]; compound 0.2 µM) was 82.6%. The inhibition ([17]; compound 4.0 µM) was 100%, the inhibition ([18]; compound 0.2 µM) was 76.3% and the inhibition ([18]; compound 4.0 µM) was 100%. For the same compound, the inhibition ([19]; compound 0.2 µM) was 81.9%, the inhibition ([20]; compound 0.2 µM) was 24.4% and the inhibition ([20]; compound 4.0 µM) was 81.9%. For the same compound, the inhibition ([21]; compound 0.2 µM) was 71.8%, the inhibition ([21]; compound 4.0 µM) was 96.6% and the inhibition ([22]; compound 0.2 µM) was -6.9%. For the same compound, the inhibition ([22]; compound 4.0 µM) was 4.7%, the inhibition ([23]; compound 0.2 µM) was 56.6% and the inhibition ([23]; compound 4.0 µM) was 99.7%. For the same compound, the inhibition ([24]; compound 0.2 µM) was -2%, the inhibition ([24]; compound 4.0 µM) was 7.8% and the inhibition ([25]; compound 0.2 µM) was 1.2%. The inhibition ([25]; compound 4.0 µM) was 3.2%, the inhibition ([26]; compound 0.2 µM) was 78.8% and the inhibition ([26]; compound 4.0 µM) was 98.8%. The inhibition ([27]; compound 4.0 µM) was 86.1% and 97.8%, the inhibition ([28]; compound 0.2 µM) was 47.8% and the inhibition ([28]; compound 4.0 µM) was 95.7%. For the same compound, the inhibition ([29]; compound 0.2 µM) was 9.2%, the inhibition ([29]; compound 4.0 µM) was 37% and the inhibition ([30]; compound 0.2 µM) was 4.5%. For the same compound, the inhibition ([30]; compound 4.0 µM) was 41.2%, the inhibition ([31]; compound 0.2 µM) was 98.9% and the inhibition ([31]; compound 4.0 µM) was 102%. It also gave an inhibition ([32]; compound 0.2 µM) of 4%, an inhibition ([32]; compound 4.0 µM) of 63.2% and an inhibition ([33]; compound 0.2 µM) of 79.2%. The inhibition ([33]; compound 4.0 µM) was 101%, the inhibition ([34]; compound 0.2 µM) was 95.6% and the inhibition ([34]; compound 4.0 µM) was 101%.
